This is an account of results in patent publication US8722661B2, “Pyrrolopyrimidone and pyrrolopyridone inhibitors of tankyrase” (Genentech, Inc., priority 2012, dated 2014).

For assay [1], the target named is T1, Tankyrase 1 (TNKS1) (Homo sapiens, UniProt O95271).
T1 construct: construct: 1088-1327, 1266M
The experiment in a line: μHTS-TNKS-IWR2 TR-FRET binding assay (TNKS1). As to the method:
(§1) μHTS-TNKS-IWR2TR-FRET Binding Assay
(§2) (10 μL/well in BD1536-well plate, a single point)
Reagents and Stock Solutions
(§3) Biotin-IWR2: 10 mM Biotin-IWR2 stock in DMSO, stored at −20° C.
Assay buffer 1a (AB 1a) for TNKS dilution: 50 mM Tris, pH 7.4, 100 mM sodium chloride solution, 1 mM magnesium chloride solution, 1 mM DL-dithiothreitol solution, 0.2 mg/mL bovine serum albumin solution, 0.025% NP-40.
Assay buffer 1b (AB 1b) for Biotin-IWR2 dilution: 50 mM Tris, pH 7.4, 100 mM sodium chloride solution, 1 mM magnesium chloride solution, 1 mM DL-dithiothreitol solution, 0.2 mg/mL bovine serum albumin solution, 0.05% NP-40
Assay buffer 1c (AB 1c) for compound dilution: 50 mM Tris, pH 7.4, 100 mM sodium chloride solution, 1 mM magnesium chloride solution, 1 mM DL-dithiothreitol solution, 0.2 mg/mL bovine serum albumin solution
Assay buffer 2 (AB2) for Eu/APC: 50 mM Tris, pH 7.4, 100 mM sodium chloride solution, 1 mM magnesium chloride solution, 0.2 mg/mL bovine serum albumin solution
Reagent Stock Solution Preparation
Prepare BLANK well stock solution: 5% DMSO/AB1b buffer
Prepare TNKS1 stock solution (5× stock): 300 nM TNKS in AB1a buffer
(§4) Transfer 3 μL/well above solution (solution 1,2,3) to an empty assay plate (BD1536-well plate) as follows:
TOTL and cpd wells: Solution 1 (Biotin-IWR2):
BLNK wells: Solution 2 (No Biotin-IWR2):
POSITIVE CONTROL wells: Solution 3 (Biotin-IWR2+XAV939)
(§5) Transfer 3 μL/well of the above diluted compound solutions or compound dilution buffer to the above assay plate.
(§6) Add 2 μL/well of 300 nM TNKS stock solution (4) to every well in the above assay plate.
Centrifuge the assay plate at 2100 rpm for 2 minutes.
(§7) Incubate the assay plate at 26° C. for 30 minutes.
(§8) Incubate the assay plate at 26° C. for 60 minutes.
(TR-FRET usually uses a lanthanide donor and a delayed reading to cut background.)

Assay [2] concerns the target T2, tankyrase 2 (His6-TNKS2) (Homo sapiens, UniProt Q9H2K2).
T2 construct: His6-tankyrase 2 (construct: 934-1166)
The experiment in a line: μHTS-TNKS-IWR2 TR-FRET binding assay with His6-TNKS2 in place of TNKS1. The following applies: Table I. Here is the method:
as §1, §2
(§9) Alternatively, in place of His6-TNKS1 can use either His6-tankyrase 2 (construct: 934-1166) (His6-TNKS2) or His6-PARP1 (full length).
as §3
Positive control: 10 mM XAV 939 in DMSO, stored at −20° C.
(§10) Prepare Biotinylated IWR2 stock solution (3.33× stock) for TOTL and cpd wells: 200 nM Biotin-IWR2 in 5% DMSO/AB1b buffer
(§11) Prepare POSITIVE CONTROL well stock solution (3.33× stock): 200 nM XAV939 in 200 nM Biotin-IWR2/5% DMSO/AB1b buffer
(§12) (Alternatively, use TNKS2 or PARP1 stock solutions.)
(§13) Prepare Eu/APC stock solution (5× stock): 3.5 nM Eu-SA/50 nM APC-His6Ab in AB2 buffer
(§14) Add 25 μL/well 1.5% DMSO/AB1c buffer in each compound well to the compound concentration at 74 μM in 8.8% DMSO/AB1c buffer or in the 2 μL DMSO CONTROL wells (BLANK, TOTAL and POSITIVE wells) in the compound plate.
as §4, §5, §6, §7, §8
(§15) Read the assay plate immediately at excitation wavelength of 330 nm and emission wavelength of […] in time resolved fluorescence mode.
(§16) Representative compound data for assays are listed below in Table I. Values are in uM.

The target in assay [3] is T3, PARP1 (His6-PARP1, full length) (Homo sapiens, UniProt P09874).
T3 construct: His6-PARP1 (full length)
T3 sequence (P09874 whole entry): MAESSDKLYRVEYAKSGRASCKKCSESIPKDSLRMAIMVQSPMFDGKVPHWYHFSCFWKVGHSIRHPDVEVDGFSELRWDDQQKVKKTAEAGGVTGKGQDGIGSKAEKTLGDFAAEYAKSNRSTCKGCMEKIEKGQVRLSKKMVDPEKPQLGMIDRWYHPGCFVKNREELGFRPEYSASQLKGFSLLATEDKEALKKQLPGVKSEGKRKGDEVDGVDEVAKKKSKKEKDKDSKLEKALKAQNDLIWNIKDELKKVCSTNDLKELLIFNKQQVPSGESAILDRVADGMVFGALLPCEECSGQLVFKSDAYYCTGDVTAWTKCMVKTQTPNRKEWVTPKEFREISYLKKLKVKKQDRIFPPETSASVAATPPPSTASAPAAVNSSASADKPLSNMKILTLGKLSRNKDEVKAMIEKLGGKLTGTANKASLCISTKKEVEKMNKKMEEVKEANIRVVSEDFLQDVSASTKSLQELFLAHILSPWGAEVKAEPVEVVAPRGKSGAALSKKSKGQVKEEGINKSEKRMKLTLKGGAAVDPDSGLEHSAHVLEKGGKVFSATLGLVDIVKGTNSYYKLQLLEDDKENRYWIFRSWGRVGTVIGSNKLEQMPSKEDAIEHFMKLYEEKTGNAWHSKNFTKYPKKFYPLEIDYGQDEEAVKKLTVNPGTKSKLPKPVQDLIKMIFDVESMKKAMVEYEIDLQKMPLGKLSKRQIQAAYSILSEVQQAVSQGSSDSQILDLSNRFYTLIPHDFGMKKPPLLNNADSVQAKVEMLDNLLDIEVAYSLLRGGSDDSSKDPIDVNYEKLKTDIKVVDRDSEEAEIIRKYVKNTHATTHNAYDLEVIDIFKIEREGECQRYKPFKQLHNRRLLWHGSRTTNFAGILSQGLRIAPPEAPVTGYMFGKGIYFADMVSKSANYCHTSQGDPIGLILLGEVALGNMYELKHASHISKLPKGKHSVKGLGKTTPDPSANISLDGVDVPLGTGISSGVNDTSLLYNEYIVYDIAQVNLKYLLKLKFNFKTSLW
The experiment in a line: μHTS-TNKS-IWR2 TR-FRET binding assay with His6-PARP1 in place of TNKS1. To be noted: Table I. Here is the method: as §1, §2, §9, §3
Positive control: 10 mM […] in DMSO, stored at −20° C.
as §10, §11, §12, §13, §14, §4, §5, §6, §7, §8, §15, §16

T1 sequence (O95271 1088-1327): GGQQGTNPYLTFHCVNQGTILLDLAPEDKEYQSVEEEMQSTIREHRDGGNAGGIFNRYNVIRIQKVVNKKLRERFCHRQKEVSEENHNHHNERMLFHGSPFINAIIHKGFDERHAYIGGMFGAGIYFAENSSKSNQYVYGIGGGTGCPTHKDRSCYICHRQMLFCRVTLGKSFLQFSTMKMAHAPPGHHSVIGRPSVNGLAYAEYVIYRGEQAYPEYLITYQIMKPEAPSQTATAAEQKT
T2 sequence (Q9H2K2 934-1166): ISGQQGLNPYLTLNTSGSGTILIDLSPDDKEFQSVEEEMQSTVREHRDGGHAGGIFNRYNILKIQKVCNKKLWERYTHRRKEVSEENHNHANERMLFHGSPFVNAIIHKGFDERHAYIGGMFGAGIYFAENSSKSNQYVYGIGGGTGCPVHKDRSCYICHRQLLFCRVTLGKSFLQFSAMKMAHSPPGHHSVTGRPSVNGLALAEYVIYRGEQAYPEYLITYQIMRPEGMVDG

Regarding `Cn1ccc2c(=O)[nH]c(N3CCN(c4ccccc4Cl)CC3)nc21` [Example 30, 2-[4-(2-Chloro-phenyl)-piperazin-1-yl]-7-methyl-3,7-dihydro-pyrrolo[2,3-d]pyrimidin-4-one], the IC50 turned out to be 0.031 µM in assay [1], 0.033 µM in assay [2] and 1.4 µM in assay [3].
In the case of `Cn1ccc2c(=O)[nH]c(-c3cccnc3)nc21` [Example 41, 7-Methyl-2-pyridin-3-yl-3,7-dihydro-pyrrolo[2,3-d]pyrimidin-4-one], the IC50 in assay [1] was 0.764 µM; in assay [2], 0.568 µM; in assay [3] it was 0.307 µM.
For `Cn1ccc2c(=O)[nH]c(N3CCN(c4cccc(C#N)c4)CC3)nc21` [Example 21, 3-[4-(7-Methyl-4-oxo-4,7-dihydro-3H-pyrrolo[2,3-d]pyrimidin-2-yl)-piperazin-1-yl]-benzonitrile], in that order: 0.081 µM, 0.09 µM and 0.612 µM.
Consider `Cn1cc(-c2cc3c(ccn3C)c(=O)[nH]2)cn1` [Example 47, 1-Methyl-6-(1-methyl-1H-pyrazol-4-yl)-1,5-dihydro-pyrrolo[3,2-c]pyridin-4-one], for which the IC50 worked out at 0.164 µM in assay [1], 0.135 µM in assay [2] and 0.292 µM in assay [3].
Consider `Cn1ccc2c(=O)[nH]c(N3CCN(c4cc(Cl)cc(Cl)c4)CC3)nc21` [Example 7, 2-[4-(3,5-Dichloro-phenyl)-piperazin-1-yl]-7-methyl-3,7-dihydro-pyrrolo[2,3-d]pyrimidin-4-one], for which the IC50 in assay [1] was 0.494 µM; in assay [2], 0.405 µM; in assay [3], over 50 µM.
On to `Cn1ccc2c(=O)[nH]c(N3CCN(c4ccc(C#N)cc4)CC3)nc21` [Example 22, 4-[4-(7-Methyl-4-oxo-4,7-dihydro-3H-pyrrolo[2,3-d]pyrimidin-2-yl)-piperazin-1-yl]-benzonitrile], for which the half-inhibitory concentration (IC50) came out at 0.097 µM in assay [1], 0.074 µM in assay [2] and 0.453 µM in assay [3].
Consider `Cn1ccc2c(=O)[nH]c(N3CCN(c4ccccc4C(F)(F)F)CC3)nc21` [Example 23, 7-Methyl-2-[4-(2-trifluoromethyl-phenyl)-piperazin-1-yl]-3,7-dihydro-pyrrolo[2,3-d]pyrimidin-4-one], for which the IC50 worked out at 0.028 µM in assay [1], 0.031 µM in assay [2] and 42.1 µM in assay [3].
`Cn1ccc2c(=O)[nH]c(N3CCC(c4ccccc4)C3)nc21` (stereo not drawn) [Example 16, 7-Methyl-2-(3-phenyl-pyrrolidin-1-yl)-3,7-dihydro-pyrrolo[2,3-d]pyrimidin-4-one]: the IC50 came to 0.915 µM in assay [1], 1.07 µM in assay [2] and 1.26 µM in assay [3].
For `O=c1[nH]c(-c2ccc(C(F)(F)F)cc2)nc2c1ccn2CO` [Example 57, 7-Hydroxymethyl-2-(4-trifluoromethyl-phenyl)-3,7-dihydro-pyrrolo[2,3-d]pyrimidin-4-one], the figures for the IC50 in assay [1], in assay [2] and in assay [3] were 0.048 µM, 0.065 µM and 1.88 µM, respectively.
For `Cn1ccc2c(=O)[nH]c(N3CCN(c4c(Cl)cncc4Cl)CC3)nc21` [Example 34, 2-[4-(3,5-Dichloro-pyridin-4-yl)-piperazin-1-yl]-7-methyl-3,7-dihydro-pyrrolo[2,3-d]pyrimidin-4-one], in that order: 0.025 µM, 0.024 µM and 1.37 µM.
As for `CCn1ccc2c(=O)[nH]c(-c3ccc(C(F)(F)F)cc3)cc21` [Example 46, 1-Ethyl-6-(4-trifluoromethyl-phenyl)-1,5-dihydro-pyrrolo[3,2-c]pyridin-4-one], the IC50 in assay [1] was 0.123 µM; in assay [2], 0.132 µM; in assay [3] it was over 50 µM.
As for `Cn1ccc2c(=O)[nH]c(N3CCN(c4ccccc4F)CC3)nc21` [Example 28, 2-[4-(2-Fluoro-phenyl)-piperazin-1-yl]-7-methyl-3,7-dihydro-pyrrolo[2,3-d]pyrimidin-4-one], the IC50 came out at 0.04 µM in assay [1], 0.08 µM in assay [2] and 3.28 µM in assay [3].
Take `Cn1ccc2c(=O)[nH]c(N3CCN(c4ccc(C#N)cn4)CC3)nc21` [Example 32, 6-[4-(7-Methyl-4-oxo-4,7-dihydro-3H-pyrrolo[2,3-d]pyrimidin-2-yl)-piperazin-1-yl]-nicotinonitrile]: the results for the IC50 in assay [1], in assay [2] and in assay [3] were 0.129 µM, 0.09 µM and 0.229 µM, respectively.
With `O=c1[nH]c(N2CCN(c3c(F)cccc3F)CC2)nc2c1ccn2CC(O)CO` (stereo not drawn) [Example 61, 2-(4-(2,6-difluorophenyl)piperazin-1-yl)-7-(2,3-dihydroxypropyl)-3H-pyrrolo[2,3-d]pyrimidin-4(7H)-one], the IC50 stood at 0.034 µM in assay [1], 0.028 µM in assay [2] and 14.8 µM in assay [3].
For `CCCn1ccc2c(=O)[nH]c(-c3ccc(C(F)(F)F)cc3)nc21` [Example 51, 7-Propyl-2-(4-trifluoromethyl-phenyl)-3,7-dihydro-pyrrolo[2,3-d]pyrimidin-4-one], the IC50 is 0.535 µM in assay [1], 0.64 µM in assay [2] and over 50 µM in assay [3].
Regarding `Cn1ccc2c(=O)[nH]c(N3CCN(c4ccccc4F)CC3)cc21` [Example 35, 6-[4-(2-Fluoro-phenyl)-piperazin-1-yl]-1-methyl-1,5-dihydro-pyrrolo[3,2-c]pyridin-4-one], the IC50 was found to be 0.051 µM in assay [1], 0.059 µM in assay [2] and 1.63 µM in assay [3].
For `Cn1ccc2c(=O)[nH]c(N3CC(C)(c4ccccc4)C3)nc21` [Example 58, 7-Methyl-2-(3-methyl-3-phenyl-azetidin-1-yl)-3,7-dihydro-pyrrolo[2,3-d]pyrimidin-4-one], in that order: 0.108 µM, 0.1 µM and 1.31 µM.
As to `O=c1[nH]c(N2CCN(c3ccccc3F)CC2)nc2c1ccn2CO` [Example 60, 2-[4-(2-Fluoro-phenyl)-piperazin-1-yl]-7-hydroxymethyl-3,7-dihydro-pyrrolo[2,3-d]pyrimidin-4-one], the IC50 stood at 0.033 µM in assay [1], 0.055 µM in assay [2] and 10.6 µM in assay [3].
The matching figures for `Cc1ccc(-c2nc3c(ccn3C)c(=O)[nH]2)cn1` [Example 42, 7-Methyl-2-(6-methyl-pyridin-3-yl)-3,7-dihydro-pyrrolo[2,3-d]pyrimidin-4-one]: 0.228 µM, 0.235 µM and 0.166 µM.
Regarding `Cn1ccc2c(=O)[nH]c(N3CCN(c4ccc(Cl)c(Cl)c4)CC3)nc21` [Example 26, 2-[4-(3,4-Dichloro-phenyl)-piperazin-1-yl]-7-methyl-3,7-dihydro-pyrrolo[2,3-d]pyrimidin-4-one], the IC50 in assay [1] was 0.204 µM; in assay [2] it was 0.153 µM; in assay [3], 1.25 µM.
For `Cn1ccc2c(=O)[nH]c(N3CCN(c4ccc(Cl)cc4)CC3)nc21` [Example 3, 2-[4-(4-Chloro-phenyl)-piperazin-1-yl]-7-methyl-3,7-dihydro-pyrrolo[2,3-d]pyrimidin-4-one], the IC50 in assay [1] is 0.042 µM; in assay [2], 0.051 µM; in assay [3] it was 1.06 µM.
`Cn1ccc2c(=O)[nH]c(-c3ccc(C(F)(F)F)cc3)cc21` [Example 45, 1-Methyl-6-(4-trifluoromethyl-phenyl)-1,5-dihydro-pyrrolo[3,2-c]pyridin-4-one]: the IC50 came out at 0.04 µM in assay [1], 0.039 µM in assay [2] and 0.842 µM in assay [3].
For `Cn1ccc2c(=O)[nH]c(N3CCN(c4cc(C(F)(F)F)ccn4)CC3)nc21` [Example 25, 7-Methyl-2-[4-(4-trifluoromethyl-pyridin-2-yl)-piperazin-1-yl]-3,7-dihydro-pyrrolo[2,3-d]pyrimidin-4-one], the 50% inhibitory concentration (IC50) in assay [1] was 0.292 µM; in assay [2], 0.2 µM; in assay [3] it was 0.557 µM.

The term IC50 denotes the concentration needed to halve the response being measured. High values mean weaker potency, low ones greater potency.
